Experiments:
[1] = tested on: V. consobrina; type: in vivo, Vespula consobrina; details: Exp 1; HIPV added to WHY attractant in the top chamber, or WHY alone
Experimental: Three field trapping experiments were carried out during late July to early August 2009, in residential and woody areas around Spokane, Wash., USA, using the newly marketed Rescue® W•H•Y traps (www.rescue.com). As used herein, the W•H•Y trap is a trap in accordance with the description of United States Patent Application Publication No. 2009/0151228. The W•H•Y trap has a top chamber and a bottom chamber. The top chamber is baited with two attractants—one of which is a solid contained in a vial (2-methyl-1-butanol) and the other a liquid mixed with water (acetic acid), herein referred to as the W•H•Y top attractant. The bottom chamber is baited with a liquid attractant (heptyl butyrate) poured onto a cotton pad, herein referred to as the W•H•Y bottom attractant. Separation of the top and bottom attractants (otherwise antagonistic to each other when released from the same chamber) in two chambers was a design feature of this trap and creates two focal attraction sources from one trap for different species of wasps, hornets, and yellowjackets. Traps were hung 1.5-2.0 m above the ground on either the fence or tree branches ca. 5 m apart within each trap line. For each trapping experiment, six sets of traps were deployed with their initial trap positions within each set being randomized. To minimize positional effects and obtain more replications, wasp collections and trap re-randomization were carried out when ≧10-20 wasps were caught in the best trap. Each replicate lasted several days depending on wasp flight activity. Captured wasps were removed from the traps and kept in the zip-bags before taking back to the laboratory for recording of the species, gender status, and catch. […]
(§1) Trap catch data were converted to proportion (P) of total captured wasps within each replicate. Data were then transformed by arcsin√P to meet the assumptions of normality and homogeneity of variances for ANOVA. Means were compared by ANOVA followed by the Ryan-Einot-Gabriel-Welsh (REGW) multiple Q test (SPSS 16.0 for Windows) at α=0.05.

[2] = tested on: Polistes dominulus worker antennae; assay: GC-EAD of cherry branch aeration samples
Experimental: Lapin cherry branches with severely damaged cherries and leaves and undamaged or slightly damaged branches were collected from a cherry orchard at Creston, Canada, on Jul. 29, 2009, and were transported to the Sterling International, Inc. lab (Spokane, Wash.) on the same day and kept at 4° C. before aerations. Headspace volatiles from the cherry branches (damaged or undamaged) were sampled by a battery operated pump and a high density polyacetate oven bag (48.2×59.6 cm Reynolds® Oven Bag; Richmond, Va., USA) enclosure with one activated charcoal filter tube in the air inlet, on Jul. 30, 2009. The volatiles in the enclosure were trapped on one Porapak Q tube (50/80 mesh; 30 mg in Teflon tube: 3 mm×35 mm) for 2.5 hr (airflow 300 ml/min) and extracted with 1 ml redistilled pentane. Aeration samples of the cherry branches (damaged or undamaged/slightly damaged) were injected (3 μl) splitless into a Varian CP-3800 GC equipped with a polar column (HP-INNOWax; 30 m×0.53 mm×1.0 μm film thickness; […] Helium was used as the carrier gas, and the injector and detector temperatures were 250° C. and 300° C., respectively. Column temperature was 50° C. for 1 min, rising to 240° C. at 10° C./min, and then held for 10 min. The outlet for the EAD was held in a humidified air stream flowing at 0.5 m/sec over the antennal preparation. EAD recordings were made using silver wire-glass capillary electrodes filled with Beadle-Ephrussi Ringer on freshly cut antennae. The antennal signals were stored and analyzed on a PC equipped with a serial IDAC interface box and the program EAD ver. 2.5 (Syntech, Hilversum, The Netherlands). […] (See FIG. 2.) The same chemicals were also tested on beneficial insect antennae from Chrysopa oculata, Myrmeleon crudelis, Podisus maculiventris, and Hippodarnia convergens. (See […] active peaks in the aeration samples were identified by GC-MS on an HP 6890 GC series coupled with an HP 5973 Mass Selective Detector using the same type of GC column and conditions as described above. Compounds were identified by comparison of retention times with those of authentic standards and with mass spectra of standards.

[3] = tested on: V. vulgaris; assay: Field trapping Experiment 1, Rescue W•H•Y traps; type: in vivo, Vespula vulgaris; details: Exp 1; HIPV added to WHY attractant in the top chamber, or WHY alone
Experimental: (§2) Three field trapping experiments were carried out during late July to early August 2009, in residential and woody areas around Spokane, Wash., USA, using the newly marketed Rescue® W•H•Y traps (www.rescue.com). As used herein, the W•H•Y trap is a trap in accordance with the description of United States Patent Application Publication No. 2009/0151228. The W•H•Y trap has a top chamber and a bottom chamber. The top chamber is baited with two attractants—one of which is a solid contained in a vial (2-methyl-1-butanol) and the other a liquid mixed with water (acetic acid), herein referred to as the W•H•Y top attractant. The bottom chamber is baited with a liquid attractant (heptyl butyrate) poured onto a cotton pad, herein referred to as the W•H•Y bottom attractant. Separation of the top and bottom attractants (otherwise antagonistic to each other when released from the same chamber) in two chambers was a design feature of this trap and creates two focal attraction sources from one trap for different species of wasps, hornets, and yellowjackets. Traps were hung 1.5-2.0 m above the ground on either the fence or tree branches ca. 5 m apart within each trap line. For each trapping experiment, six sets of traps were deployed with their initial trap positions within each set being randomized. To minimize positional effects and obtain more replications, wasp collections and trap re-randomization were carried out when ≧10-20 wasps were caught in the best trap. Each replicate lasted several days depending on wasp flight activity. Captured wasps were removed from the traps and kept in the zip-bags before taking back to the laboratory for recording of the species, gender status, and catch.
(§3) Experiment 3 (Aug. 5-13, 2009) was conducted to determine the potential behavioral activity of different doses of (E)-4,8-dimethyl-1,3,7-nonatriene alone. The individual (or different doses) HIPVs were loaded into either polyethylene bags or centrifuge tube type of dispensers, and released from the top of the W•H•Y trap chamber. W•H•Y trap attractants (both top and bottom or top only) alone and water (top chamber only) were included in the test as positive and blank controls, respectively. The dispenser types, loading and release rates of the tested semiochemicals are described in Tables 1, 2 and 3.
as §1

[4] = tested on: P. aurifer; assay: Field trapping Experiment 1, Rescue W•H•Y traps; type: in vivo, Polistes aurifer; details: Exp 1; HIPV added to WHY attractant in the top chamber, or WHY alone
Experimental: as §2, §3, §1

[5] = aeration of severely damaged cherry branches, at current release rates
[6] = aeration of undamaged or slightly damaged cherry branches

| SMILES | Total Yellowjacket Catches V. consobrina [1] | EAD response of worker antennae [2, 5] | Total Yellowjacket Catches V. vulgaris [3] | Total Paper Wasps P. aurifer [4] | EAD response of worker antennae [2, 6] |
| --- | --- | --- | --- | --- | --- |
| C=C/C=C(\C)CCC=C(C)C [(E)-4,8-dimethyl-1,3,7-nonatriene] | 0 | significant EAD response | 52 | 12 | – |
| COC(=O)c1ccccc1O [Methyl Salicylate, methyl salicylate] | 2 | did not elicit significant EAD-responses | 23 | 6 | – |
| CC/C=C\CCO [Z-3-Hexanol, (Z)-3-hexen-1-ol] | 0 | did not elicit significant EAD-responses | 33 | 4 | strongly responded |
| CC/C=C\CCOC(C)=O [Z-3-Hexenyl Acetate, (Z)-3-hexenyl acetate] | 1 | did not elicit significant EAD-responses | 34 | 9 | strongly responded |
